{"source": "patent EP2794556B1", "about": "“BIS-(ARYL/HETEROARYL)-METHYLENE COMPOUNDS, PHARMACEUTICAL COMPOSITIONS CONTAINING SAME AND THEIR USE FOR TREATING CANCER” (Gleason, James L., priority 2011, dated 2013)", "key": {"[1]": {"molecular_target": "T1, VDR (Homo sapiens, UniProt P11473)", "T1 construct": "endogenous in cells; host or cells: SCC25 human head and neck squamous carcinoma cells", "T1 sequence (P11473 1-427)": "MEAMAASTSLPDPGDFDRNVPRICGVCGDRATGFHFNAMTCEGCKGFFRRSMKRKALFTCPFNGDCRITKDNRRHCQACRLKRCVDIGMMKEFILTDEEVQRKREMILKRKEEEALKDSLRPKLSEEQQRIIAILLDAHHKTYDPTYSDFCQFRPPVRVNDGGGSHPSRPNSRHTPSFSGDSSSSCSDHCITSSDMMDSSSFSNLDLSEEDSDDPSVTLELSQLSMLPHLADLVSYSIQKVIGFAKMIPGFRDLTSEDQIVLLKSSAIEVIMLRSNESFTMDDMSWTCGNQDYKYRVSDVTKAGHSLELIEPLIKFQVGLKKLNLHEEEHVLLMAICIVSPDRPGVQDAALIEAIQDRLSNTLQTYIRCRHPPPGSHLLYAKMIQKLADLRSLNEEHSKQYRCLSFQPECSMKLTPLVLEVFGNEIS", "test": "VDR agonism by induction of CYP24 gene expression (RT/PCR)", "assay_type": "cell-based", "method": "Cell culture. Human head and neck squamous carcinoma cell lines SCC4 and SCC45 and mouse HNSCC line AT84 were purchased from American Type Culture Collection (Manassas, VA) and cultured under recommended conditions. Cells were split at 60-70% confluence, as follows: cells were washed with filtered PBS, split with a 5-10 min incubation with 1 ml Trypsin-EDTA (Invitrogen, Carlsbad, CA) in PBS, collected with medium. Following centrifugation, the supernatant was removed. Cell pellets were resuspended with DMEM-F12, and distributed on fresh media-containing dishes. For treatments, AT84 cells were split and 24h later medium was changed to DMEM + 10% charcoal-stripped FBS.\nRNA isolation and RT/PCR analysis. […]. Proc. Nat. Acad. Sci. U.S.A. 105, 8250-55. and Lamblin, M.et al Bioorganic & Medicinal Chemistry (2010) 18:4119-4137. After treatment, cells were washed with PBS, homogenized with 1ml TRIzol Reagent (Invitrogen, Carlsbad, CA), kept at room temperature for 2-5 min, collected and kept at -80 °C for at least 1h. After, thawing 0.2 ml chloroform was added. After vigorous mixing and storing for 10min, mixtures were centrifuged (10,000rpm, 15 min, 4 °C) and the upper transparent layer was transferred to a new tube. 0.5 ml isopropanol was added and the new solution was mixed. After centrifuging at 4 °C, the supernatant was discarded and 1ml of 75% ethanol was added. After centrifuging and discarding the supernatant, the pellet was air-dried for 5-10 min, and then dissolved in ddH2O. RNA concentrations were measured using a spectrophotometer, and 1-3µg of RNA were loaded for reverse transcriptase reactions (total volume: 20 µl). 80µl of ddH2O was added to the RT-product, and 1.5µl of that was used as template for the PCR reaction. Reverse transcriptase (Super Script II) was purchased from Invitrogen (Carlsbad, CA). DNA polymerase and dNTP's were ordered from Fermentas (Glen Burnie, MD).\nTest compounds (10 µM) were first screened for VDR agonism by analysis of induction of CYP24 gene expression in 1,25D-sensitive human SCC25 cells. […]. Consistent with binding to the VDR, induction of CYP24 by compound JF-B01, compound JF-B53 or compound 16 (JF-B54) was blocked (Fig. 1c). […]"}, "[2]": {"tested_on": "EKVX", "test": "NCI 60 cell panel"}, "[3]": {"tested_on": "OVCAR-8", "test": "NCI 60 cell panel"}, "[4]": {"tested_on": "SF-539", "test": "NCI 60 cell panel"}, "[5]": {"tested_on": "PC-3", "test": "NCI 60 cell panel"}, "[6]": {"tested_on": "SN12C", "test": "NCI 60 cell panel"}, "[7]": {"tested_on": "TK-10", "test": "NCI 60 cell panel"}, "[8]": {"tested_on": "MOLT-4", "test": "NCI 60 cell panel"}, "[9]": {"tested_on": "SF-295", "test": "NCI 60 cell panel"}, "[10]": {"tested_on": "OVCAR-5", "test": "NCI 60 cell panel"}, "[11]": {"tested_on": "SW-620", "test": "NCI 60 cell panel"}, "[12]": {"tested_on": "DU-145", "test": "NCI 60 cell panel"}, "[13]": {"tested_on": "AT84 cells", "test": "EdU cell growth assay", "settings": "AT84 cells", "description": "EdU cell growth assay. Click-iT EdU Alexa Fluor high-throughput imaging (HCS) assay for cell proliferation. HCS assays were performed on AT84 mouse squamous carcinoma cell line (ATCC) following the manufacturer's instruction (Molecular Probes, Invitrogen). […] All samples were in triplicate."}, "[14]": {"tested_on": "HS 578T", "test": "NCI 60 cell panel"}, "[15]": {"tested_on": "HCT-116", "test": "NCI 60 cell panel"}, "[16]": {"tested_on": "SNB-75", "test": "NCI 60 cell panel"}, "[17]": {"tested_on": "MCF7", "test": "NCI 60 cell panel"}}, "data": [{"smiles": "CCC(CC)(c1ccc(OCC(=O)NO)c(C)c1)c1ccc(OCC(O)C(C)(C)C)c(C)c1", "note": "(racemic) [JF-B01, N-Hydroxy-2-(4-(3-(4-(2-hydroxy-3,3-dimethylbutoxy)-3-methylphenyl)pentan-3-yl)-2-methylphenoxy)acetamide]", "values": [{"measurement": "induction of CYP24 by the compound was blocked", "setting": "[1]; Fig. 1c, blocking agent not given", "value": "blocked"}, {"measurement": "VDR agonist potency compared with that of LG190178", "setting": "[1]; SCC25 cells, Fig. 1b", "value": "equal to or greater"}, {"measurement": "VDR agonist potency, fold lower than that of 1,25D", "setting": "[1]; SCC25 cells, Fig. 1b", "value": "approximately 10 fold"}, {"measurement": "VDR agonist activity and potency, induction of CYP24 gene expression", "setting": "[1]; SCC25 cells, Fig. 1b, 1d", "value": "efficacious agonist"}, {"measurement": "VDR agonism by induction of CYP24 gene expression", "setting": "[1]; screen at 10 µM, SCC25 cells, Fig. 1a", "value": "agonist activity"}, {"measurement": "GI50", "setting": "[2]; Homo sapiens", "value": 2.87, "unit": "µM"}, {"measurement": "CC50", "setting": "[2]; Homo sapiens, read-out: LC50", "value": 35.3, "unit": "µM"}, {"measurement": "TGI", "setting": "[2]; Non-Small Cell Lung Cancer", "value": "1.24E-5"}, {"measurement": "GI50", "setting": "[3]; Homo sapiens, OVCAR-8", "value": 6.27, "unit": "µM"}, {"measurement": "CC50", "setting": "[3]; Homo sapiens, OVCAR-8, read-out: LC50", "value": 51.1, "unit": "µM"}, {"measurement": "TGI", "setting": "[3]; Ovarian Cancer, OVCAR-8", "value": "2.03E-5"}, {"measurement": "TGI", "setting": "[4]; CNS Cancer, SF-539", "value": "2.74E-5"}, {"measurement": "GI50", "setting": "[4]; Homo sapiens, SF-539", "value": 13.7, "unit": "µM"}, {"measurement": "CC50", "setting": "[4]; Homo sapiens, SF-539, read-out: LC50", "value": 54.9, "unit": "µM"}, {"measurement": "GI50", "setting": "[5]; Homo sapiens, PC-3", "value": 3.04, "unit": "µM"}, {"measurement": "CC50", "setting": "[5]; Homo sapiens, PC-3, read-out: LC50", "value": 41.8, "unit": "µM"}, {"measurement": "TGI", "setting": "[5]; Prostate Cancer, PC-3", "value": "1.23E-5"}, {"measurement": "GI50", "setting": "[6]; Homo sapiens", "value": 3.87, "unit": "µM"}, {"measurement": "CC50", "setting": "[6]; Homo sapiens, read-out: LC50", "value": 40.3, "unit": "µM"}, {"measurement": "TGI", "setting": "[6]; Renal Cancer", "value": "1.59E-5"}, {"measurement": "GI50", "setting": "[7]; Homo sapiens, TK-10", "value": 2.83, "unit": "µM"}, {"measurement": "CC50", "setting": "[7]; Homo sapiens, TK-10, read-out: LC50", "value": 42.8, "unit": "µM"}, {"measurement": "TGI", "setting": "[7]; Renal Cancer, TK-10", "value": "1.60E-5"}, {"measurement": "GI50", "setting": "[8]; Homo sapiens, MOLT-4", "value": 1.15, "unit": "µM"}, {"measurement": "CC50", "setting": "[8]; Homo sapiens, MOLT-4, read-out: LC50", "value": 40.9, "unit": "µM"}, {"measurement": "TGI", "setting": "[8]; Leukemia, MOLT-4", "value": "4.60E-6"}, {"measurement": "TGI", "setting": "[9]; CNS Cancer, SF-295", "value": "2.02E-5"}, {"measurement": "GI50", "setting": "[9]; Homo sapiens, SF-295", "value": 7.61, "unit": "µM"}, {"measurement": "CC50", "setting": "[9]; Homo sapiens, SF-295, read-out: LC50", "value": 44.9, "unit": "µM"}, {"measurement": "GI50", "setting": "[10]; Homo sapiens, OVCAR-5", "value": 12.9, "unit": "µM"}, {"measurement": "CC50", "setting": "[10]; Homo sapiens, OVCAR-5, read-out: LC50", "value": 50.6, "unit": "µM"}, {"measurement": "TGI", "setting": "[10]; Ovarian Cancer, OVCAR-5", "value": "2.56E-5"}, {"measurement": "TGI", "setting": "[11]; Colon Cancer, SW-620", "value": "1.25E-5"}, {"measurement": "GI50", "setting": "[11]; Homo sapiens, SW-620", "value": 2.3, "unit": "µM"}, {"measurement": "CC50", "setting": "[11]; Homo sapiens, SW-620, read-out: LC50", "value": 35.4, "unit": "µM"}, {"measurement": "GI50", "setting": "[12]; Homo sapiens, DU-145", "value": 13, "unit": "µM"}, {"measurement": "CC50", "setting": "[12]; Homo sapiens, DU-145, read-out: LC50", "value": 50.6, "unit": "µM"}, {"measurement": "TGI", "setting": "[12]; Prostate Cancer, DU-145", "value": "2.56E-5"}, {"measurement": "antiproliferative potency, fold less potent than 1,25D", "setting": "[13]", "value": 10, "unit": "fold"}, {"measurement": "TGI", "setting": "[14]; Breast Cancer, HS 578T", "value": "2.65E-5"}, {"measurement": "GI50", "setting": "[14]; Homo sapiens, Hs-578T", "value": 8.8, "unit": "µM"}, {"measurement": "CC50", "setting": "[14]; Homo sapiens, Hs-578T, read-out: LC50", "value": 72.5, "unit": "µM"}, {"measurement": "TGI", "setting": "[15]; Colon Cancer, HCT-116", "value": "1.09E-5"}, {"measurement": "GI50", "setting": "[15]; Homo sapiens, HCT-116", "value": 2.13, "unit": "µM"}, {"measurement": "CC50", "setting": "[15]; Homo sapiens, HCT-116, read-out: LC50", "value": 33.4, "unit": "µM"}, {"measurement": "TGI", "setting": "[16]; CNS Cancer, SNB-75", "value": "1.90E-5"}, {"measurement": "GI50", "setting": "[16]; Homo sapiens, SNB-75", "value": 0.0482, "unit": "µM"}, {"measurement": "CC50", "setting": "[16]; Homo sapiens, SNB-75, read-out: LC50", "value": 62, "unit": "µM"}, {"measurement": "TGI", "setting": "[17]; Breast Cancer, MCF7", "value": "2.70E-6"}, {"measurement": "GI50", "setting": "[17]; Homo sapiens, MCF7", "value": 0.333, "unit": "µM"}, {"measurement": "CC50", "setting": "[17]; Homo sapiens, MCF7, read-out: LC50", "value": 12.8, "unit": "µM"}]}]}
